Laboratory results taken from patent publication US8580955B2, “Purification method and production method for cellobiose” (Matsutani Chemical Industry Co., Ltd., priority 2005, dated 2013).
One block for each molecule: values may come before it.

Assays:
[1] = Determination of solubility of cellobiose (Karl Fisher moisture of supernatant); format: physicochemical; conditions: supernatant of 20% (w/v) solution after crystal formation, 100% minus moisture content
Description: There was prepared a 20% (w/v) solution of a commercially available cellobiose (manufactured by Wako Pure Chemical Co., Ltd.), the resulting solution was introduced into a thermostatic chamber maintained at a temperature ranging from 10 to 60° C. to thus form crystals of cellobiose, thereafter the content of water present in the supernatant was determined using a Karl Fisher moisture meter and then the solubility was calculated by subtracting the moisture content from 100%.

[2] = Solubility in water expressed as dissolution time; format: physicochemical; conditions: for Dissolution Time: 10 g in 100 mL deionized water at 25 °C with stirring
Description: The solubility (the rate of dissolution) of crystalline cellobiose in water may vary depending on the rates of the stereoisomers (the rates of the α- and β-anomers). For instance, when the cellobiose crystals are dissolved in water, the resulting solution is maintained at a high temperature falling within the range in which the solution is not boiled, preferably 80 to 95° C. for a time ranging from 0.5 to 2.0 hours and then the solution is dried while maintaining the same at that temperature, the ratio of the α-anomer is increased to thus give cellobiose powder improved in its solubility in water.
The cellobiose-containing sugar solution having a high content of cellobiose, prepared in Example 4 was concentrated to a solid content concentration of 20%, the sugar solution was then maintained at a temperature of 20° C., 60° C. or 80° C. for one hour and, immediately thereafter, the solution was dried in a spray dryer to thus give cellobiose powder. These powdery cellobiose products were inspected for the solubility in water and the distribution rate of anomers. In this respect, the distribution rate of anomers was determined using Gas Chromatograph GC14 available from Shimadzu Corporation which was equipped with a column: DB1701 (inner diameter: 0.25 mm; length: 30 m) available from J & W Company. More specifically, each sample (1.0 mg) was dissolved in 0.769 mL of pyridine, 0.077 mL of TMSC and 0.154 mL of HMDS were added to the resulting solution, the mixture was maintained at room temperature for one hour and then it was used in the gas chromatography analysis.

Solubility of Cellobiose ([1]; 10 °C): 13.5%
Solubility of Cellobiose ([1]; 20 °C): 14.0%
Solubility of Cellobiose ([1]; 30 °C): 14.7%
Solubility of Cellobiose ([1]; 40 °C): 18.4%
Solubility of Cellobiose ([1]; 50 °C): 22.9%
Solubility of Cellobiose ([1]; 60 °C): 26.3%
Structure (SMILES): O=C[C@H](O)[C@@H](O)[C@H](O[C@@H]1O[C@H](CO)[C@@H](O)[C@H](O)[C@H]1O)[C@H](O)CO [Cellobiose, cellobiose]

time required for the dissolution ([2]; 10 g sample in 100 mL deionized water at 25 °C with stirring, crystals): 12.5 min
Structure (SMILES): O=C[C@H](O)[C@@H](O)[C@H](O[C@@H]1O[C@H](CO)[C@@H](O)[C@H](O)[C@H]1O)[C@H](O)CO [Example 1, cellobiose]

Dissolution Time ([2]; powder spray-dried from sugar solution kept at 20 °C for one hour): 8.0 min
Dissolution Time ([2]; powder spray-dried from sugar solution kept at 60 °C for one hour): 4.0 min
Dissolution Time ([2]; powder spray-dried from sugar solution kept at 80 °C for one hour): 2.5 min
Structure (SMILES): O=C[C@H](O)[C@@H](O)[C@H](O[C@@H]1O[C@H](CO)[C@@H](O)[C@H](O)[C@H]1O)[C@H](O)CO [Example 5, cellobiose]
